Measurements: US8377918B2 (ACC Therapeutics Inc, priority 2005, dated 2013)
Read-outs that look alike come from different tables or passages of the source.

Columns and labels:
[1] = test system: tumors induced by A2780/CP70 cells; experiment: Blood vessel numbers of A2780/CP70 tumors on CAM; type: in vivo, chicken embryo; details: 2.5 μM CDDP alone, 10 days
Procedure: (§1) FIG. 4. […] The A2780/CP70 cells were seeded into 100 mm dish and grown to 90-100% confluence. […] In 10 days, the tumors were harvested and weighed. The blood vessel numbers of the tumor were counted under×100. At least five areas were determined. The data are mean±SD from two experiments (n=8). A, representative tumor morphology; B, tumor weight; C, relative numbers of blood vessels.

[2] = test system: tumors induced by A2780/CP70 cells; experiment: Tumor weight of A2780/CP70 tumors on CAM; type: in vivo, chicken embryo; details: 2.5 μM CDDP, 10 days
Procedure: as §1

H460 cells = experiment: MTT cell proliferation assay, H460 lung cancer cells; type: cell-based, human; details: H460, 15 μM apigenin, 24 h
Procedure: FIG. 17. […] A, the prostate cancer cells PC-3 and DU145; B, colon cancer cells Colo-205 and HCT-116; C, lung cancer cells A549 and H460 cells were plated at 1×10^4 cells per well in a 96 well plate in 100 μl of media. […] FIG. 18. […] A and B, the prostate cancer cells PC-3 and DU145; C, colon cancer cells Colo-205 and HCT-116; D, lung cancer cells A549 and H460 cells were plated at 1×10^4 cells per well in a 96 well plate in 100 μl of media. […] The cell proliferation was analyzed by MTT assay. […] FIG. 22. […] A, colon cancer cells Colo-205 and HCT-116; B, lung cancer cells A549 and H460 cells were plated at 1×10^4 cells per well in a 96 well plate the day before the treatment. […] Cell proliferation was examined by MTT assay. […] FIG. 25.

Colo-205 cells = experiment: MTT cell proliferation assay, Colo-205 colon cancer cells; type: cell-based, human; details: colo-205, 15 μM apigenin, 24 h
Procedure: FIG. 17. […] A, the prostate cancer cells PC-3 and DU145; B, colon cancer cells Colo-205 and HCT-116; C, lung cancer cells A549 and H460 cells were plated at 1×10^4 cells per well in a 96 well plate in 100 μl of media. […] FIG. 20. […] A, the prostate cancer cells PC-3 and DU145; B, colon cancer cells Colo-205 and HCT-116; C, lung cancer cells A549 and H460 cells were plated at 1×10^4 cells per well in a 96 well plate. […] Cell proliferation was examined by MTT assay. […] FIG. 22. […] A, colon cancer cells Colo-205 and HCT-116; B, lung cancer cells A549 and H460 cells were plated at 1×10^4 cells per well in a 96 well plate the day before the treatment. […] Cell proliferation was examined by MTT assay. […] FIG. 24. […] The IC50 values for inhibiting cell proliferation were calculated from cell proliferation assay as described above.

PC-3 cells = experiment: MTT cell proliferation assay, PC-3 prostate cancer cells; type: cell-based, human
Procedure: (§2) FIG. 8. […] Prostate cancer cells PC-3 and DU145 were seeded in 96-well plates at 1×10^4 cells/well. […] The cell proliferation was assayed by culturing the cells for 24 h, then adding 10 μl of MTT reagent with incubation for 2 h. The reaction was stopped by adding 100 μl of solubilization solution. The relative cell proliferation was obtained by the reading at 590 nm which was recorded in a spectrophotometer, and normalized to the value of control.
FIG. 9. […] A, Cisplatin-resistant ovarian cancer cell line A2780/CP70, and B, prostate cancer cells PC-3 were seeded in 96-well plates at 1×10^4 cells/well and incubated overnight.
(§3) FIG. 17. […] A, the prostate cancer cells PC-3 and DU145; B, colon cancer cells Colo-205 and HCT-116; C, lung cancer cells A549 and H460 cells were plated at 1×10^4 cells per well in a 96 well plate in 100 μl of media.
FIG. 18. […] A and B, the prostate cancer cells PC-3 and DU145; C, colon cancer cells Colo-205 and HCT-116; D, lung cancer cells A549 and H460 cells were plated at 1×10^4 cells per well in a 96 well plate in 100 μl of media. […] The cell proliferation was analyzed by MTT assay.
(§4) FIG. 19. […] A, prostate cancer cells PC-3; and B, DU145 cells were plated at 1×10^4 cells per well in a 96 well plate in 100 μl of media. […] Cell proliferation was examined by MTT assay.
(§5) FIG. 23. […] Cell proliferation was examined by MTT assay.

A2780/CP70 cells [3] = experiment: MTT cell proliferation assay, A2780/CP70 ovarian cancer cells; type: cell-based, human; details: for IC50: 24 h
Procedure: (§6) FIG. 1. […] (A) A2780/CP70 cells and human fibroblast GM847 cells were seeded in 96-well plate at 4×10^3 cells per well and incubated overnight. […] The cells were incubated for 24 h. Cell proliferation was determined by MTT reduction. […] Cells were trypsinized, harvested, washed once with PBS buffer, and stained using the Annexin-V-Folus Kit as per the manufacture's instructions. […] After incubation, all cells were collected and total DNA was isolated. Eight (8) μg of DNA was resolved on 1.8% agarose gel. […] (D) Treatment of GM847 cells was the same as that of 5D. […] Cleavage of caspase-3 and PARP was detected by western-blot.
FIG. 3. […] A2780/CP70 cells were seeded in 96-well plates and incubated overnight. The old medium was discarded and fresh medium with cisplatin (CDDP) in the presence or absence of apigenin (Api) was added. In 24 h, the cell proliferation was determined by means of MTT reduction method.
FIG. 9. […] A, Cisplatin-resistant ovarian cancer cell line A2780/CP70, and B, prostate cancer cells PC-3 were seeded in 96-well plates at 1×10^4 cells/well and incubated overnight. […] In 24 h, the cell proliferation was assayed by using a MTT assay kit. *indicates significant difference compared to cisplatin alone (p<0.01).

A2780/CP70 cells [4] = experiment: Annexin V apoptosis assay, A2780/CP70; type: cell-based, human; details: A2780/CP70, 10 μM cisplatin, 24 h
Procedure: as §6
FIG. 10. […] The cisplatin-resistant ovarian cancer A2780/CP70 cells were seeded in a petri dish. […] After treatment, the cells were collected and the relative cellular apoptosis was analyzed by Annexin V Kit (Roche), and compared to the control.

DU145 cells = experiment: MTT cell proliferation assay, DU145 prostate cancer cells; type: cell-based, human; details: DU145, 15 μM apigenin, 24 h
Procedure: as §2, §3, §4
FIG. 21. […] A, the prostate cancer cells PC-3 and DU145; B and C, colon cancer cells Colo-205 and HCT-116 were plated at 1×10^4 cells per well in a 96 well plate in 100 μl of media a day before the treatment.
as §5

[5] = test system: A2780/CP70 ovarian cancer cells; experiment: Cell survival by MTT reduction assay with taxol, A2780/CP70; type: cell-based, human; details: for IC50: Homo sapiens, A2780/CP70, 48 h, 48 h, read-out: IC50 of cell viability (cell survival)
Procedure: (§7) FIG. 11. […] PC-3 prostate cancer cells and A2780/CP70 ovarian cancer cells were seeded in 96-well plates and incubated overnight. […] After 48 h, cell survival was determined by means of MTT reduction assay.

[6] = test system: PC-3 prostate cancer cells; experiment: Cell survival by MTT reduction assay with taxol, PC-3; type: cell-based, human; details: for IC50: Homo sapiens, 48 h, read-out: IC50 of cell viability (cell survival)
Procedure: as §7

N.N.[Cl][Pt][Cl] [cisplatin]
effect on blood vessel formation [1]: slightly inhibited the blood vessel formation
effect on tumor growth [2]: slightly inhibited tumor growth
decrease of IC50 by combination with apigenin (H460 cells): 20 fold
decrease of IC50 by apigenin (Colo-205 cells): 3 fold
reduction of cisplatin IC50 by apigenin (PC-3 cells; PC-3, 10 μM apigenin): 7 fold
IC50 (PC-3 cells; PC-3, in the presence of 10 μM apigenin, 24 h, read-out: cisplatin concentration giving 50% inhibition of cell proliferation): 3000 nM
reduction of cisplatin IC50 by apigenin (A2780/CP70 cells [3]; A2780/CP70, 10 μM apigenin): 4 fold
IC50 (A2780/CP70 cells [3]; A2780/CP70, cisplatin alone, read-out: concentration of cisplatin needed to inhibit 50% of cell proliferation (IC50)): ~20000 nM
IC50 (A2780/CP70 cells [3]; A2780/CP70, with addition of 10 μM apigenin, read-out: IC50 of cisplatin for cell proliferation): 5000 nM
apoptosis (A2780/CP70 cells [4]): low levels of apoptosis

COc1cccc2c1C(=O)c1c(O)c3c(c(O)c1C2=O)C[C@@](O)(C(=O)CO)C[C@@H]3O[C@H]1C[C@H](N)[C@H](O)[C@H](C)O1 [doxorubicin]
decrease of IC50 by combination with apigenin (H460 cells): 20 fold
reduction of IC50 of doxorubicin by apigenin (PC-3 cells; PC-3, 15 μM apigenin, 24 h): 2 fold

O=c1[nH]cc(F)c(=O)[nH]1 [fluorouracil, reference compound]
reduction of IC50 of fluorouracil by apigenin (DU145 cells): 70%

CO[C@@]12[C@H](COC(N)=O)C3=C(C(=O)C(C)=C(N)C3=O)N1C[C@@H]1N[C@@H]12 [mitomycin C]
decrease of IC50 by apigenin (Colo-205 cells): 7 fold

CC(=O)O[C@H]1C(=O)[C@@]2(C)[C@H]([C@H](OC(=O)c3ccccc3)[C@]3(O)C[C@H](OC(=O)[C@H](O)[C@@H](NC(=O)c4ccccc4)c4ccccc4)C(C)=C1C3(C)C)[C@]1(OC(C)=O)CO[C@@H]1C[C@@H]2O [taxol]
taxol IC50 with apigenin, fold less than taxol alone ([5]; A2780/CP70, 20 μM apigenin): 2 fold
IC50 ([5]; A2780/CP70, taxol alone): 503 nM
IC50 ([5]; A2780/CP70, taxol with 20 μM apigenin): 225 nM
IC50 ([6]; PC-3, taxol alone): 577 nM
IC50 ([6]; PC-3, taxol with 20 μM apigenin): 50.3 nM
taxol IC50 with apigenin, fold less than taxol alone ([6]; PC-3, 20 μM apigenin): 11 fold
